Values belong to the molecule of their own block, whether it stands above or below them.
Assays:
[1] = molecular target: T1, rh-alpha-Gal A in Fabry disease cell lines (Homo sapiens, UniProt P06280); assay: Correction by rh-alpha-Gal A in Fabry disease cell lines with chaperone; format: cell-based; settings: three Fabry disease cell lines
T1 construct: purchased Genzyme Co, Cambridge, Mass., USA
T1 sequence (P06280 32-429): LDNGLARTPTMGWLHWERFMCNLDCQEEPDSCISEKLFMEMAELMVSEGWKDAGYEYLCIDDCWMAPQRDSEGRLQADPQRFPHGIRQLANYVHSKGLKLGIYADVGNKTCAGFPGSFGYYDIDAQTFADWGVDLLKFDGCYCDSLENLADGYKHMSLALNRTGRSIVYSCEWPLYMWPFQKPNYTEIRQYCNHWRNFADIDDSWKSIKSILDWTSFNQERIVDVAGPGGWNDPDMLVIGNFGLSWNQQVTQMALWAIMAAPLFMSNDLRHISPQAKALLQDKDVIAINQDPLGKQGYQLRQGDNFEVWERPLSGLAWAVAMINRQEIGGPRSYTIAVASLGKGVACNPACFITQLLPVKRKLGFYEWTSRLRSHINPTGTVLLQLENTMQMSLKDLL
Procedure: Fibroblasts from PD and Fabry disease patients were derived from skin biopsies after obtaining the informed consent of patients. Normal age-matched control fibroblasts were available in the laboratory of the Department of Pediatrics, Federico II University of Naples. All cell lines were grown at 37° C. with 5% CO2 in Dulbecco's modified Eagle's medium (Invitrogen, Grand Island, N.Y.) and 10% fetal bovine serum (Sigma-Aldrich, St Louis, Mo.), supplemented with 100 U/ml penicillin and […] streptomycin.

[2] = molecular target: T2, rhGAA (Homo sapiens, UniProt P10253); assay: Effect of compounds on rhGAA stability at neutral pH (residual α-glucosidase activity); format: biochemical; settings: pH 7.0, 37° C., 0.1-10 mM, up to 48 hrs
T2 construct: purchased Genzyme Co, Cambridge, Mass., USA
Procedure: (§1) The standard activity assay of rhGAA was performed in 200 μl by using 5 μg of enzyme at 37° C. in 100 mM sodium acetate pH 4.0 and 20 mM 4NP-Glc. The reaction was started by adding the enzyme; after suitable incubation time (1-2 min) the reaction was blocked by adding 800 μL of 1 M sodium carbonate pH 10.2. Absorbance was measured at 420 nm at room temperature, the extinction coefficient to calculate enzymatic units was 17.2 mM^−1 cm^−1. One enzymatic unit is defined as the amount of enzyme catalyzing the conversion of 1 μmol substrate into product in 1 min, under the indicated conditions.
(§2) The effect of different pHs on the rhGAA stability was measured by preparing reaction mixtures containing 0.75 mg mL^−1 of enzyme in the presence of 50 mM citrate/phosphate (pH 3.0-7.0) at a certain pH. After incubations at 37° C., aliquots were withdrawn at the times indicated and the residual α-glucosidase activity was measured with the standard assay. To test the effect on the pH stability of rhGAA of chemical chaperons and of the other molecules, experiments were performed as described above by adding to the reaction mixtures the amounts of the different compounds indicated in the text.

[3] = molecular target: T2, rhGAA; assay: Effect on rhGAA enzyme activity (standard activity assay); format: biochemical; settings: three concentrations (FIG. 4)
Procedure: as §1

[4] = molecular target: T3, rhGAA in PD fibroblasts (Homo sapiens, UniProt P10253); assay: Correction of GAA activity by rhGAA in PD fibroblasts with chaperone (synergy); format: cell-based; settings: patient 3 (FIG. 7)
T3 construct: purchased Genzyme Co, Cambridge, Mass., USA
Procedure: To study the rhGAA uptake and correction of GAA activity in PD fibroblasts, the cells were incubated with […] rhGAA for 24 hours, in the absence or in the presence of 10 mM NAC. Untreated cells or were used for comparison. After the incubation the cells were harvested by trypsinization and disrupted by 5 cycles of freezing and thawing.
GAA activity was assayed by using the fluorogenic substrate 4-methylumbelliferyl-alpha-D-glucopyranoside (Sigma-Aldrich) according to a published procedure [Porto et al, 2009]. Briefly, 25 micrograms of protein were incubated with the fluorogenic substrate (2 mM) in 0.2 M acetate buffer, pH 4.0, for 60 minutes in incubation mixtures of 100 μl. The reaction was stopped by adding 700 μl of glycine-carbonate buffer, pH 10.7. Fluorescence was read at 365 nm (excitation) and 450 nm (emission) on a Turner Biosystems Modulus fluorometer. Protein concentration in cell homogenates was measured by the Bradford assay (Biorad, Hercules, Calif.).
To study GAA immunoreactive material, fibroblast extracts were subjected to western blot analysis. The cells were harvested, washed in phosphate-buffered saline, resuspended in water, and disrupted by five cycles of freeze-thawing. Equal amounts (20 μg protein) of fibroblast extracts were subjected to sodium dodecyl sulfate polyacrylamide gel electrophoresis and proteins were transferred to PVD membrane (Millipore, Billerica, Mass.). An anti-human GAA antiserum was used as primary antibody to detect GAA polypeptides; to detect β-actin, a monoclonal mouse antibody was used Immunoreactive proteins were detected by chemiluminescence (ECL, Amersham, Freiburg, Germany)
To study the distribution of AlexaFluor546 labeleld GAA, PD fibroblasts grown on coverslips were fixed using methanol, permeabilized using 0.1% saponin and locked with 0.01% saponin, 1% fetal bovine serum diluted in phosphate-buffered saline for 1 hour. The cells were incubated with the primary antibodies, with secondary antibodies in blocking solution and then mounted with vectashield mounting medium (Vector Laboratories, Burlingame, Calif.). Samples were examined with a Zeiss LSM 5 10 laser scanning confocal microscope. Authors used Argon/2 (458, 477, 488, and 514 nanometers) and HeNe1 (543 nanometers) excitation lasers, which were switched-on separately to reduce crosstalk of the two fluorochromes. The green and the red emissions were separated by a dichroic splitter (FT 560) and filtered (515-540-nm bandpass filter for green and >610-nm long pass filter for red emission). A threshold was applied to the images to exclude ˜99% of the signal found in control images.

[5] = molecular target: T2, rhGAA; assay: Thermal stability scans of rhGAA (SYPRO Orange); format: binding; settings: pH 7.4; for Tm of rhGAA in the presence of chaperone: NAC 10 mM, DNJ 0.1 mM
Procedure: Thermal stability scans of rhGAA were performed as described in [Flanagan et al. 2009]. Briefly, 2.5 μg of enzyme were incubated in the absence and in the presence of NAC and DNJ, 10 mM and 0.1 mM, respectively, SYPRO Orange dye, and sodium phosphate 25 mM buffer, 150 mM NaCl, pH 7.4 or sodium acetate 25 mM buffer, 150 mM NaCl, pH 5.2. Thermal stability scans were performed at 1° C./min in the range 25-95° C. in a Real Time LightCycler (Bio-Rad). SYPRO Orange fluorescence was normalized to maximum fluorescence value within each scan to obtain relative fluorescence. Melting temperatures were calculated according to (Niesen et al. 2007).

[6] = Effect of pH on rhGAA stability; format: physicochemical
Procedure: as §1, §2

Molecule: OC[C@H]1NC[C@H](O)[C@@H](O)[C@H]1O [DGJ, 1-deoxy-galactonojiirimycin, reference compound]
enhancement of correction by rh-alpha-Gal A [1]: largely enhanced

Molecule: N[C@@H](CS)C(=O)O [Cys, reference compound]
stabilization of rhGAA at neutral pH [2]: did not prevent enzyme inactivation

Molecule: O=C(O[C@@H]1Cc2c(O)cc(O)cc2O[C@@H]1c1cc(O)c(O)c(O)c1)c1cc(O)c(O)c(O)c1 [epigallo chatechingallate, epigallo catechingallate, reference compound]
enhancement of rhGAA in PD cultured fibroblasts [4]: did not enhance

Molecule: OCCS [2-mercapto-ethanol, reference compound]
stabilization of rhGAA at neutral pH [2]: did not prevent enzyme inactivation

Molecule: rhGAA: recombinant human GAA (alglucosidase, Myozyme) from Genzyme, used for enzyme replacement therapy
Tm of rhGAA in the absence of chaperone [5]: 50.2±0.1 °C
rhGAA residual activity after 4 hours ([6]; pH 3.0 or 7.0, 37° C., 4 hours): approximately 50%
rhGAA residual activity after 16 hours ([6]; pH 3.0 or 7.0, 37° C., 16 hours): less than 10%
rhGAA stability at pH 5.0 ([6]; pH 5.0, 37° C., up to 24 hours): stable

Molecule: OC[C@H]1NC[C@H](O)[C@@H](O)[C@@H]1O [DNJ, 1-deoxy-nojiirimycin, reference compound]
Tm of rhGAA in the presence of chaperone [5]: 65.9±0.3 °C

Continued, values first:

stabilization of rhGAA at neutral pH [2]: remarkable stabilization
effect on the activity of the enzyme (rhGAA) [3]: no effect
Molecule: CC(=O)NCC(=O)O [NAG, N-acetyl glycine]

Tm of rhGAA in the presence of chaperone [5]: 65.9±0.3 °C
Molecule: CCCCN1C[C@H](O)[C@@H](O)[C@H](O)[C@H]1CO [NB-DNJ, N-butyl-deoxynojirimycin, reference compound]

stabilization of rhGAA at neutral pH [2]: did not prevent enzyme inactivation
Molecule: N[C@@H](CO)C(=O)O [Ser, reference compound]

enhancement of rhGAA in PD cultured fibroblasts [4]: did not enhance
Molecule: Oc1ccc(C=Cc2cc(O)cc(O)c2)cc1 [resveratrol, reference compound]

stabilization of rhGAA at neutral pH [2]: remarkable stabilization
effect on the activity of the enzyme (rhGAA) [3]: no effect
Molecule: CC(=O)N[C@@H](CO)C(=O)O [NAS, N-acetyl serine]

stabilization of rhGAA at neutral pH [2]: did not prevent enzyme inactivation
Molecule: NCC(=O)O [Gly, reference compound]

— patent US20150147309A1, “ALLOSTERIC CHAPERONES AND USES THEREOF” (Fondazione Telethon, priority 2012, published 2015)
